Assay results: patent publication US20250206727A1, “HETEROCYCLIC SUBSTITUTED AROMATIC COMPOUND, PREPARATION METHOD THEREFOR, HERBICIDAL COMPOSITION AND APPLICATION” (QINGDAO KINGAGROOT CHEMICAL COMPOUND CO., LTD., priority 2022, published 2025)

How the values were obtained:
Experiment in all cases: Post-emergence test on weeds (greenhouse, spray at 2-3 leaf stage)
Type in all cases: in vivo
Design in all cases: key: Level 10: completely dead; Level 9: growth control rate greater than or equal to 90% and less than 100%; Level 8: growth control rate greater than or equal to 80% and less than 90%; Level 7: growth control rate greater than or equal to 70% and less than 80%; Level 6: growth control rate greater than or equal to 60% and less than 70%; Level 5: growth control rate greater than or equal to 50% and less than 60%; Level 4: growth control rate greater than or equal to 40% and less than 50%; Level 3: growth control rate greater than or equal to 30% and less than 40%; Level 2: growth control rate greater than or equal to 20% and less than 30%; Level 1: growth control rate less than 20%; Level 0: no effect
Conditions in all cases: 3 weeks after application
[1] = system: Setaria viridis
Source text: (§1) The activity level criteria for plant damage (i.e., growth control rate) are as follows: • Level 10: completely dead; • Level 9: growth control rate greater than or equal to 90% and less than 100%; • Level 8: growth control rate greater than or equal to 80% and less than 90%; • Level 7: growth control rate greater than or equal to 70% and less than 80%; • Level 6: growth control rate greater than or equal to 60% and less than 70%; • Level 5: growth control rate greater than or equal to 50% and less than 60%; • Level 4: growth control rate greater than or equal to 40% and less than 50%; • Level 3: growth control rate greater than or equal to 30% and less than 40%; • Level 2: growth control rate greater than or equal to 20% and less than 30%; • Level 1: growth control rate less than 20%; • Level 0: no effect.
(§2) The above growth control rates are fresh weight control rates.
(§3) Monocotyledonous and dicotyledonous weed seeds (Descurainia sophia, Capsella bursa-pastoris, Abutilon theophrasti, Galium spurium, Stellaria media, Lithospermum arvense, Rorippa indica, Alopecurus aequalis, Alopecurus japonicus, Eleusine indica, Beckmannia syzigachne, Sclerochloa dura, Erigeron canadensis, Phleum paniculatum, Veronica polita, Bromus japonicus, Aegilops tauschii, Phalaris arundinacea, Amaranthus retrofexus, Chenopodium, Commelina communis, Cichorium endivia, Convolvulus arvensis, Cirsium arvense, Solanum nigrum, Acalypha australis, Digitaria sanguinalis, Echinochloa crus-galli, Setaria viridis, Setaa pumila, Lepochloa chinensis, Monochona vaginalis, Sagitta trifolia, Schoenoplectiella juncoides, Cypenus rotundus, Cyperus ira, Cyperus difformis, Fimbristylis, Portulaca oleracea, Xanthium sibiricum, Ipomoea nil, Eschenbachia japonica, etc.) and major crop seeds (wheat, maize, paddy rice, soybean, cotton, oilseed rape, millet, sorghum, potato, sesame, castor plant, etc.) were placed in plastic pots filled with soil and then covered with 0.5-2 cm of soil to allow them to grow in a favorable greenhouse environment. Two weeks after sowing, the test plants were treated at the stage of 2-3 leaves. The test compounds of the present invention were individually dissolved with acetone, then added with Tween® 80, with 1.5 L/ha of methyl oleate emulsifiable concentrate as a synergist, diluted into solutions of certain concentrations using certain amount of water, and sprayed to the plants using a spray tower. After drug application, the experimental results on weeds were collected after 3 weeks of cultivation in a greenhouse. The compounds were applied at 500, 250, […], 15, and 7.5 g a.i./ha in triplicate, and the results were averaged.

[2] = system: Abutilon theophrasti
Source text: as §1, §2, §3

[3] = system: Veronica polita
Source text: as §1, §2, §3

[4] = system: Echinochloa crus-galli
Source text: as §1, §2, §3

[5] = system: Digitaria sanguinalis
Source text: as §1, §2, §3

[6] = system: Amaranthus retroflexus
Source text: as §1, §2, §3

COCCCOC(=O)C1ON=C(c2cc(-c3ncc(C(F)(F)F)cc3Cl)c(F)cc2Cl)O1 (stereo not drawn) [Compound 115]
10: activity level (fresh weight growth control rate), Setaria viridis ([1]; 60 g a.i./ha) | activity level (fresh weight growth control rate), Abutilon theophrasti ([2]; 60 g a.i./ha) | activity level (fresh weight growth control rate), Veronica polita ([3]; 60 g a.i./ha) | activity level (fresh weight growth control rate), Echinochloa crus-galli ([4]; 60 g a.i./ha) | activity level (fresh weight growth control rate), Digitaria sanguinalis ([5]; 60 g a.i./ha) | activity level (fresh weight growth control rate), Amaranthus retroflexus ([6]; 60 g a.i./ha)

CCOC(=O)C1(C)ON=C(c2cc(-c3ncc(C(F)(F)F)cc3OC)c(F)cc2Cl)O1 (stereo not drawn) [Compound 33]
10: activity level (fresh weight growth control rate), Setaria viridis ([1]; 60 g a.i./ha) | activity level (fresh weight growth control rate), Abutilon theophrasti ([2]; 60 g a.i./ha) | activity level (fresh weight growth control rate), Veronica polita ([3]; 60 g a.i./ha) | activity level (fresh weight growth control rate), Echinochloa crus-galli ([4]; 60 g a.i./ha) | activity level (fresh weight growth control rate), Digitaria sanguinalis ([5]; 60 g a.i./ha) | activity level (fresh weight growth control rate), Amaranthus retroflexus ([6]; 60 g a.i./ha)

CCOC(=O)C1(C)ON=C(c2cc(-c3ncc(C(F)(F)F)cc3Cl)c(F)cc2Cl)O1 (stereo not drawn) [Compound 39]
10: activity level (fresh weight growth control rate), Setaria viridis ([1]; 15 g a.i./ha) | activity level (fresh weight growth control rate), Abutilon theophrasti ([2]; 15 g a.i./ha) | activity level (fresh weight growth control rate), Veronica polita ([3]; 15 g a.i./ha) | activity level (fresh weight growth control rate), Echinochloa crus-galli ([4]; 15 g a.i./ha) | activity level (fresh weight growth control rate), Digitaria sanguinalis ([5]; 15 g a.i./ha) | activity level (fresh weight growth control rate), Amaranthus retroflexus ([6]; 15 g a.i./ha)

COC(=O)C1(C2CC2)ON=C(c2cc(-c3ncc(Cl)cc3F)c(F)cc2Cl)O1 (stereo not drawn) [Compound 21]
10: activity level (fresh weight growth control rate), Setaria viridis ([1]; 60 g a.i./ha) | activity level (fresh weight growth control rate), Abutilon theophrasti ([2]; 60 g a.i./ha) | activity level (fresh weight growth control rate), Veronica polita ([3]; 60 g a.i./ha) | activity level (fresh weight growth control rate), Echinochloa crus-galli ([4]; 60 g a.i./ha) | activity level (fresh weight growth control rate), Digitaria sanguinalis ([5]; 60 g a.i./ha) | activity level (fresh weight growth control rate), Amaranthus retroflexus ([6]; 60 g a.i./ha)

CC1(C(=O)OCC2CC2)ON=C(c2cc(-c3ncc(C(F)(F)F)cc3Cl)c(F)cc2Cl)O1 (stereo not drawn) [Compound 126]
10: activity level (fresh weight growth control rate), Setaria viridis ([1]; 60 g a.i./ha) | activity level (fresh weight growth control rate), Abutilon theophrasti ([2]; 60 g a.i./ha) | activity level (fresh weight growth control rate), Veronica polita ([3]; 60 g a.i./ha) | activity level (fresh weight growth control rate), Echinochloa crus-galli ([4]; 60 g a.i./ha) | activity level (fresh weight growth control rate), Digitaria sanguinalis ([5]; 60 g a.i./ha) | activity level (fresh weight growth control rate), Amaranthus retroflexus ([6]; 60 g a.i./ha)

CC1(C(=O)OCc2ccccc2F)ON=C(c2cc(-c3ncc(C(F)(F)F)cc3Cl)c(F)cc2Cl)O1 (racemic) [Compound 133]
10: activity level (fresh weight growth control rate), Setaria viridis ([1]; 60 g a.i./ha) | activity level (fresh weight growth control rate), Abutilon theophrasti ([2]; 60 g a.i./ha) | activity level (fresh weight growth control rate), Veronica polita ([3]; 60 g a.i./ha) | activity level (fresh weight growth control rate), Echinochloa crus-galli ([4]; 60 g a.i./ha) | activity level (fresh weight growth control rate), Digitaria sanguinalis ([5]; 60 g a.i./ha) | activity level (fresh weight growth control rate), Amaranthus retroflexus ([6]; 60 g a.i./ha)

CC1(C(=O)OCC(F)F)ON=C(c2cc(-c3ncc(C(F)(F)F)cc3Cl)c(F)cc2Cl)O1 (stereo not drawn) [Compound 101]
10: activity level (fresh weight growth control rate), Setaria viridis ([1]; 60 g a.i./ha) | activity level (fresh weight growth control rate), Abutilon theophrasti ([2]; 60 g a.i./ha) | activity level (fresh weight growth control rate), Veronica polita ([3]; 60 g a.i./ha) | activity level (fresh weight growth control rate), Echinochloa crus-galli ([4]; 60 g a.i./ha) | activity level (fresh weight growth control rate), Digitaria sanguinalis ([5]; 60 g a.i./ha) | activity level (fresh weight growth control rate), Amaranthus retroflexus ([6]; 60 g a.i./ha)

COC(=O)C1(C)ON=C(c2cc(-c3ncc(C)cc3Cl)c(F)cc2Cl)O1 (stereo not drawn) [Compound 12]
10: activity level (fresh weight growth control rate), Setaria viridis ([1]; 60 g a.i./ha) | activity level (fresh weight growth control rate), Abutilon theophrasti ([2]; 60 g a.i./ha) | activity level (fresh weight growth control rate), Veronica polita ([3]; 60 g a.i./ha) | activity level (fresh weight growth control rate), Echinochloa crus-galli ([4]; 60 g a.i./ha) | activity level (fresh weight growth control rate), Digitaria sanguinalis ([5]; 60 g a.i./ha) | activity level (fresh weight growth control rate), Amaranthus retroflexus ([6]; 60 g a.i./ha)

COC(=O)C1(C)ON=C(c2cc(-c3ncc(Br)cc3Cl)c(F)cc2Cl)O1 (stereo not drawn) [Compound 5]
10: activity level (fresh weight growth control rate), Setaria viridis ([1]; 60 g a.i./ha) | activity level (fresh weight growth control rate), Abutilon theophrasti ([2]; 60 g a.i./ha) | activity level (fresh weight growth control rate), Veronica polita ([3]; 60 g a.i./ha) | activity level (fresh weight growth control rate), Echinochloa crus-galli ([4]; 60 g a.i./ha) | activity level (fresh weight growth control rate), Digitaria sanguinalis ([5]; 60 g a.i./ha) | activity level (fresh weight growth control rate), Amaranthus retroflexus ([6]; 60 g a.i./ha)

CC1(C(=O)ON=Cc2ccco2)ON=C(c2cc(-c3ncc(C(F)(F)F)cc3Cl)c(F)cc2Cl)O1 (racemic) [Compound 143]
10: activity level (fresh weight growth control rate), Setaria viridis ([1]; 60 g a.i./ha) | activity level (fresh weight growth control rate), Abutilon theophrasti ([2]; 60 g a.i./ha) | activity level (fresh weight growth control rate), Veronica polita ([3]; 60 g a.i./ha) | activity level (fresh weight growth control rate), Echinochloa crus-galli ([4]; 60 g a.i./ha) | activity level (fresh weight growth control rate), Digitaria sanguinalis ([5]; 60 g a.i./ha) | activity level (fresh weight growth control rate), Amaranthus retroflexus ([6]; 60 g a.i./ha)

CC1(C(=O)OCCCF)ON=C(c2cc(-c3ncc(C(F)(F)F)cc3Cl)c(F)cc2Cl)O1 (stereo not drawn) [Compound 103]
10: activity level (fresh weight growth control rate), Setaria viridis ([1]; 60 g a.i./ha) | activity level (fresh weight growth control rate), Abutilon theophrasti ([2]; 60 g a.i./ha) | activity level (fresh weight growth control rate), Veronica polita ([3]; 60 g a.i./ha) | activity level (fresh weight growth control rate), Echinochloa crus-galli ([4]; 60 g a.i./ha) | activity level (fresh weight growth control rate), Digitaria sanguinalis ([5]; 60 g a.i./ha) | activity level (fresh weight growth control rate), Amaranthus retroflexus ([6]; 60 g a.i./ha)

CC(C)=CCOC(=O)C1(C)ON=C(c2cc(-c3ncc(C(F)(F)F)cc3Cl)c(F)cc2Cl)O1 (stereo not drawn) [Compound 96]
10: activity level (fresh weight growth control rate), Setaria viridis ([1]; 60 g a.i./ha) | activity level (fresh weight growth control rate), Abutilon theophrasti ([2]; 60 g a.i./ha) | activity level (fresh weight growth control rate), Veronica polita ([3]; 60 g a.i./ha) | activity level (fresh weight growth control rate), Echinochloa crus-galli ([4]; 60 g a.i./ha) | activity level (fresh weight growth control rate), Digitaria sanguinalis ([5]; 60 g a.i./ha) | activity level (fresh weight growth control rate), Amaranthus retroflexus ([6]; 60 g a.i./ha)
